Data reported in patent publication US7338932B2, “Methods of modulating functions of polypeptide GalNAc-transferases and of screening test substances to find agents herefor, pharmaceutical compositions comprising such agents and the use of such agents for preparing medicaments” (Glycozym APS, priority 2000, dated 2008).

Experiments:
[1] = tested on: wild type CHO/MUC1sol-cloneC4; test: Secretion of MUC1, western blot of medium; assay type: cell-based, Chinese Hamster; settings: 1-2 mM; compared to control treated or non-treated cells
Procedure: In order to characterize the secreted MUC1 product SDS-PAGE western blot analysis of harvested culture medium of confluent cultures were performed. Ten to twenty μL culture supernatant was analysed directly or treated with 0.1 U/mL neuraminidase (C. Perfringes VI, Sigma) for 30-60 min at 37° C. Samples were mixed with SDS sample buffer, reduced with DTT, and run on precast 4-20% gels (Biorad). As shown in FIG. 9 anti-MUC1 antibodies detected two forms of MUC1 in the medium; a low molecular weight form migrating as 130-140 kd corresponding to unglycosylated product, and a high molecular weight form migrating above 250 kd. The high molecular weight form was sensitive to neuraminidase treatment as evidenced by a marked shift and retardation in migration. […]
Because GalNAcα-benzyl exerts separate effects on O-glycan processing and mucin expression, the use of the novel selective inhibitor of mucin expression, GalNAcβ-benzyl, allow analysis of mucin expression and secretion in different cell line models. […] Most human adenocarcinoma cell lines express and secret mucins and analysis with antibodies to detect protein expression or probes to detect mRNA can reveal the types and quantities of mucins. […] The inhibitory effect on mucin secretion can be quantified by a number of assays known to the skilled in the art including western blot, ELISA, gelfiltration, immunocapture, and other assays.

[2] = tested on: CHOldlD/MUC1F-clone2 cells; test: MUC1 expression in cell lysates, immunoprecipitation and SDS-PAGE western blot; assay type: cell-based, Chinese Hamster; settings: 2 mM, 48 hours
GalNAc-T4 = target: T1, GalNAc-T4 (Homo sapiens, UniProt Q8N4A0); test: Inhibition of glycosylation dependent (GalNAc-glycopeptide) activity of GalNAc-T4, MALDI-TOF time-course; assay type: biochemical; settings: 10 mM benzyl sugar
T1 construct: using the GalNAc-T4-sol construct that encodes residues 32-578 inserted into pT7T3U19; made in house; host or cells: High Five insect cells (baculovirus, pAcGP67)
T1 sequence (Q8N4A0 32-578): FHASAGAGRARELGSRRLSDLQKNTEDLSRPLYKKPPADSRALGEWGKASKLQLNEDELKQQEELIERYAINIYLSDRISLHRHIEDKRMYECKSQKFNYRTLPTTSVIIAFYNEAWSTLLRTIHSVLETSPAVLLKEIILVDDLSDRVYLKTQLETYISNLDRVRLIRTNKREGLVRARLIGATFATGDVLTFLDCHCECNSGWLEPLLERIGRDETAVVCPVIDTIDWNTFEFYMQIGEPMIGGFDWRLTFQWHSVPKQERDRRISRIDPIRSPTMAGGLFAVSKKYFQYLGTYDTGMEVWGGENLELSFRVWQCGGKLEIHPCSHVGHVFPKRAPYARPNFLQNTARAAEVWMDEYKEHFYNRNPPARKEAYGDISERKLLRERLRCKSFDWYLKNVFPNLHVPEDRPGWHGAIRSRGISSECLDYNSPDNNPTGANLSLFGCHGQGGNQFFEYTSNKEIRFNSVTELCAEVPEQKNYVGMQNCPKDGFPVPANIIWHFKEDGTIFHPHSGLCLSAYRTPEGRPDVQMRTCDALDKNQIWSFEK
Procedure: MALDI-TOF time-course in terminal reactions were performed in reactions of 25 μl containing 2.5 nmol acceptor (glyco)peptide, 40 nmol UDP-GalNAc, and 0.4 μg GalNAc-T4. Sampling of reactions (1 μl) were purified by nano-scale reversed-phase chromatography (Poros R3, PerSeptive Biosystem) and applied directly to the probe with matrix (41). The amount of GalNAc-transferase added was adjusted so that the reaction with the appropriate peptide was near completion in six hours. Reactions were incubated at 37° C. in a shaker bath. At times 0, 2 hours, and 16 hours a 1 μl aliquot was taken and purified. Mass spectra were acquired on either Voyager-DE mass spectrometer equipped with delayed extraction (Perseptive Biosystem Inc.). The matrix used was 2,5-dihydroxybenzoic acid (10 mg/ml, Hewlett-Packard) dissolved in a 2:1 mixture of 0.1% trifluoroacetic acid in 30% aqueous acetonitrile (Rathburn Ltd.).
Quantification of purified proteins was done by Coomassie stained SDS-PAGE and titration of immunoreactivity with the monoclonal antibody, UH6(4G2) (8). […] Wild-type GalNAc-T4 and mutant GalNAc-T4, GalNAc-T4^459H, were analysed with unglycosylated peptides (represented by PSGL-1) or GalNAc glycosylated glycopeptides (represented by GalNAc3TAP25V21) in reactions of 25 μl containing 2.5 nmol acceptor (glyco)peptide, 40 nmol UDP-GalNAc, and 0.4 μg GalNAc-T4. Time-course assays were motioned by MALDI-TOF. Sampling of reactions (1 μl) were purified by nano-scale reversed-phase chromatography (Poros R3, PerSeptive Biosystem) and applied directly to the probe with matrix. Evaluation of inhibition of the glycopeptide specificity of wild-type GalNAc-T4 with free sugars was performed to establish if the lectin domain recognized carbohydrate. […] Further, analysis was performed with 10 mM α-D-GalNAc-1-benzyl, αGlcNAc-benzyl, and fully occupied GalNAc-glycopeptide, GalNAc6TAP25, at 5 mM.

[3] = target: T2, secreted soluble GalNAc-T4 (sT4) (Homo sapiens, UniProt Q8N4A0); test: Direct binding ELISA to GalNAc-MUC1 glycopeptide, competitive inhibition, sT4
T2 construct: using the GalNAc-T4-sol construct that encodes residues 32-578 inserted into pT7T3U19; 6xHis (N); thrombin cleavage site (N); T7 tag (N); made in house; host or cells: High Five insect cells (baculovirus)
T2 sequence (Q8N4A0 32-578): as above
Procedure: (§1) Protein biotinylation was made as previously reported^62. The pH of 1 ml purified protein (0.3 mg/ml) in PBS was adjusted to pH 9 with 1 M NaOH and 40 μl N-hydroxy-succinimidobiotin (Sigma) dissolved in DMF (10 mg/ml) was added. The solution was mixed end-over-end for 2 hours at room temperature, and dialyzed three times against PBS and an equal volume of glycerol was added. The biotinylated proteins were stored at −20° C. in 50% glycerol until use.
(§2) Direct binding ELISA assay was developed as follows: Polystyrene microtiter plates (Maxisorb, Nunc, Denmark) were coated with peptides or enzymatically glycosylated glycopeptides in PBS overnight at 4° C. Plates were washed and blocked with 0.1% Tween20 and 0.2% BSA in PBS for 1 h at room temperature, followed by incubation with biotinylated proteins in PBS with 0.05% Tween20 for 2 h at room temperature. After four washes with PBS, plates were incubated with 1:2,000 dilution streptavidin-HRP (Sigma) in PBS for 30 min at room temperature and washed four times with PBS. Development was performed with 0.5 mg/ml o-phenylenediamine and 0.02% H2O2 at room temperature for 15 min, and reaction stopped by adding 100 μl/well of 0.5 N H2SO4. Competitive inhibition assays were done at end-point titers of GalNAc-transferase proteins with one hour preincubations with inhibitor.
(§3) In binding studies using lectins without biotinylation antibodies to the HIS-tag and the T7-tag, or in some experiments antibodies raised to GalNAc-T2 and -T4 enzymes were used to detect binding.

[4] = target: T3, GalNAc-T2 lectin domain (T2ld) (Homo sapiens, UniProt Q10471); test: Direct binding ELISA to GalNAc-MUC1 glycopeptide, competitive inhibition, T2ld
T3 construct: made in house; host or cells: High Five insect cells (baculovirus, pAcGP67-A)
T3 sequence (Q10471 408-571): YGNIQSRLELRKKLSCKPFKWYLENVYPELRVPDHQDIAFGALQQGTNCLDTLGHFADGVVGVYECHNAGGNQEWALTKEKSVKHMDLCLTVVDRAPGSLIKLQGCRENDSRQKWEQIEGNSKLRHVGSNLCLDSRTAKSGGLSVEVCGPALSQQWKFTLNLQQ
Procedure: as §1, §2, §3

| Compound | Secreted MUC1 in medium [1] | MUC1 expression ([2]; IP HMFG2, blot 5E5) | SDS-PAGE migration of MUC1 (O-glycosylation) ([2]; cells grown in Gal and GalNAc, blot 5E5) | Inhibition of glycosylation dependent specificity of GalNAc-T4 (GalNAc-T4) | Inhibition of GalNAc-T4 lectin binding ([3]; FIG. 7, ELISA plates with GalNAc-Muc1) | IC50 ([3]; binding to GalNAc-MUC1 glycopeptide) [mM] | IC50 [4] [mM] |
| --- | --- | --- | --- | --- | --- | --- | --- |
| CC(=O)N[C@H]1[C@@H](OCc2ccccc2)O[C@H](CO)[C@H](O)[C@@H]1O [GalNAcα-benzyl] | inhibition of secreted MUC1 | significant reduction in MUC1 expression | marked shift in migration |  |  |  |  |
| CC(=O)N[C@H]1[C@@H](OCc2ccccc2)O[C@H](CO)[C@@H](O)[C@@H]1O [GlcNAcα-benzyl] |  |  |  | did not inhibit | no inhibition | > 100 | > 100 |
